From US20250341517A1, “SWITCHING PEPTIDE, IMMUNOASSAY DEVICE COMPRISING SAME, AND IMMUNOASSAY METHOD USING SAME” (OPTOLANE TECHNOLOGIES INC., priority 2021, published 2025) come the findings set out here.

Ends that are not written are not given here. FAM = carboxyfluorescein (FAM) fluorescent label

Assay [1] relates to anti-HBsAG antibody. Nature of the assay: Fluorescence immunoassay with FAM switching peptide and TQ2 quenching material (FIGS. 9-12). The class given is binding. As to conditions: for fluorescence intensity, antigen selectivity: HBsAg. The source says:
FIG. 9 is a graph illustrating a fluorescence intensity measured after reacting an anti-HBSAG antibody to which an H2 switching peptide of Example 2 and a Tide-Quencher 2 (TQ2) quenching material are bound, with HBsAg, Inf A, Inf B (Florida), Inf B (Tokio), and PBS sample solutions, respectively.
FIG. 10 is a graph illustrating a fluorescence intensity measured after reacting the anti-HBsAG antibody to which the H2 switching peptide of Example 2 and the Tide-Quencher 2 (TQ2) quenching material are bound, with detection sample solutions each containing various concentrations of HBsAg antigens.
FIG. 11 is a graph illustrating a fluorescence intensity measured after binding the anti-HBsAG antibody to which the H2 switching peptide of Example 2 and the Tide-Quencher 2 (TQ2) quenching material are bound, to protein A beads and reacting it with detection sample solutions containing various concentrations of the HBsAg antigens.
FIG. 12 is graphs illustrating a fluorescence intensity measured after reacting the anti-HBsAG antibody to which one of the L1, H1, L2 and H2 switching peptides of Example 2 and the TQ2 quenching material is bound, with HRP, CRP, HBsAg, and hCG sample solutions, respectively.

The subject of another assay is Anti-HBsAg antibody(g). Nature of the assay: Release of fluorescently labeled switching peptide from immobilized antibody on antigen binding (Table 4). Also noted: species or system goat. Conditions: after treatment with antigen HBsAg.
The test system of the next assay is anti-inf A antibody. Nature of the assay: Graphene-quenched immunoassay with TAMRA L1 switching peptide (FIG. 14). The class given is binding. Conditions: L1 labeled with TAMRA; graphene quenching material. The source says: FIG. 14 is a graph illustrating a fluorescence intensity measured after binding an anti-inf A antibody to which an L1 switching peptide labeled with a TAMRA fluorescent label is bound, to a graphene quenching material and reacting it with an Influenza A sample solution.

Assay [2] relates to anti-HBsAG antibody. Put plainly: Graphene-quenched immunoassay with TAMRA L1 switching peptide (FIG. 13). The class given is binding. Conditions: L1 labeled with TAMRA; graphene quenching material. The source says: FIG. 13 is graphs illustrating a fluorescence intensity measured after binding an anti-HBsAg antibody to which an L1 switching peptide labeled with a TAMRA fluorescent label is bound, to a graphene quenching material and reacting it with an HBsAg sample solution.

In another assay the test system is Anti-hCG antibody(m). Nature of the assay: Release of fluorescently labeled switching peptide from immobilized antibody on antigen binding (Table 4). Details: species or system mouse.
The subject of a further assay is Inf-A. Put plainly: One-step immunoassay detection of Inf-A with switching-peptide-bound binding antibody (FIG. 18, 20B). Conditions: anti-Inf-A antibody bound to the peptide, treated with Inf-A, CRP, BSA. Also noted: species or system Influenza A.
A further assay has as its system anti-SARS-COV-2 antibody. Put plainly: Graphene-quenched immunoassay with TAMRA L1 switching peptide (FIG. 15). The class given is binding. As to conditions: L1 labeled with TAMRA; graphene quenching material. The source says: FIG. 15 is a graph illustrating a fluorescence intensity measured after binding an anti-SARS-COV-2 antibody to which an L1 switching peptide labeled with a TAMRA fluorescent label is bound, to a graphene quenching material and reacting it with a SARS-CoV-2 sample solution.

Another assay concerns H2 peptide. Nature of the assay: FRET test of specific interaction between L1 and H2 peptides on microplate (FIG. 4A). Conditions: L1 (FAM) and H2 (TAMRA); L1 concentration varied. The class given is binding. The source says: (§1) FIG. 4A is diagrams illustrating a method for confirming a specific interaction between L1 and H2 peptides and a specific interaction between L2 and H1 peptides and the measurement results thereof, and FIG. 4B is diagrams for explaining a specific interaction between L1 and H2 peptides and a specific interaction between L2 and H1 peptides analyzed using PyMOL software. Here, at the ends of the L1 and L2 peptides, a first fluorescent label, FAM (λex=488 nm, λem=532 nm) was modified, and at the ends of the H1 and H2 peptides, a second fluorescent label, TAMRA (ex=532 nm, hem=570 nm) was modified. Meanwhile, the first peptide (L1 or L2) was immobilized on a parylene-H-coated microplate through a covalent bond between a formyl group of parylene-H and a primary amine group of a lysine residue in the peptide, and a second peptide (H2 or H1) was incubated with the immobilized first peptide (L1 or L2) to allow specific interactions between them.

Assay [3] concerns rabbit anti-HRP antibodies. Put plainly: Papain treatment of immobilized antibody with bound switching peptide (FIG. 7). The class given is binding. Conditions: after papain treatment compared to before. The source says: FIG. 7A is a schematic diagram illustrating states before and after treatment of the antibody to which the four types of peptides of Example 1 were bound, respectively, with papain, which is a protease, and FIG. 7B is graphs illustrating a fluorescence intensity measured at a bottom (B) of the microplate and in a solution(S) after the papain treatment. In the case of this experiment, after immobilization of the antibodies (rabbit anti-HRP antibodies) on the microplate, binding between the antibody and the switching peptide was induced by treatment with a fluorescently labeled switching peptide, the unbound switching peptide was removed, and then the Fab region was hydrolyzed from the immobilized antibodies by adding papain, which is a protease.
Referring to FIG. 7A, the fluorescence at the bottom (B) of the microplate is expected to decrease after the papain reaction because the fluorescently labeled switching peptides are bound to the Fab region of antibodies, and the fluorescence in the solution is expected to increase because the Fab region to which the switching peptide is bound is hydrolyzed and dissolved into the solution. This prediction is proven to be true from the graphs of FIG. 7B.

In a further assay the test system is Anti-HRP antibody(r). Put plainly: Release of fluorescently labeled switching peptide from immobilized antibody on antigen binding (Table 4). Details: species or system rabbit. Conditions: after treatment with antigen HRP.
For a further assay, the system named is Anti-CRP antibody(r). The assay is described as above. Also noted: species or system rabbit.
Another assay relates to Inf-B. Put plainly: One-step immunoassay detection of Inf-B with switching-peptide-bound binding antibody (FIG. 19, 20D). Conditions: antibody bound to the peptide, treated with Inf-A, CRP, BSA. The source says: Therefore, an antibody bound to the L1 peptide or the H2 peptide may be used for selective detection of the Inf-B.
Therefore, binding antibodies bound to the two types of peptides may have similar responses upon detection of Inf-A.
In addition, since it can be confirmed that the baseline is maintained in the experiment with CoV strain 229E, which is a negative control, the immunoassay based on the two types of binding antibodies may be used to detect Inf-B in actual samples.
Therefore, the immunoassay device using the switching peptide according to the present disclosure may sensitively detect Inf-B in a much wider detection range than conventional rapid tests, and the one-step immunoassay method according to the present disclosure may be used for much more sensitive detection of Inf-A and Inf-B in the entire detection range compared to conventional rapid tests.

Assay [4] deals with anti-HRP antibody from a rabbit. Put plainly: One-step immunoassay with varying HRP concentration (FIG. 8). The class given is binding. Conditions: HRP 0.3 to 100 μM (FIG. 8B). The source says:
FIG. 8A is a schematic diagram for explaining an immunoassay method using fluorescently labeled peptide compounds of Example 1, and FIGS. 8B and 8C are graphs illustrating the fluorescence intensity in a solution and at a bottom of the microplate depending on a concentration of the antigen measured by the immunoassay method illustrated in FIG. 8A. In this experiment, an anti-HRP antibody from a rabbit immobilized on a microplate was used as the binding antibody and HRP was used as the antigen.

A further assay deals with L2 peptide. Put plainly: FRET test of specific interaction between H1 and L2 peptides on microplate (FIG. 4A). The class given is binding. Conditions: H1 (TAMRA) and L2 (FAM); H1 concentration varied.
From the text: as §1

The mark [5] stands for this setting: FAM switching peptides of Example 2, TQ2, HRP, CRP, hCG sample solutions (FIG. 12).

In the case of “TYLEWYPQKPGQSPKLLIYK [L1, TYLEW YPQKP GQSPK LLIYK]”, the “fluorescence intensity, antigen selectivity” value with anti-HBsAG antibody [1] (setting [5]) was “high intensity fluorescence was measured only for the HBsAg antigen”. For the same substance, the “fluorescence intensity at the bottom of the plate decreased by” value in the assay with Anti-HBsAg antibody(g) is on record as 48.7%; with Anti-HRP antibody(r) it was 12.7%. Besides, in the assay on anti-inf A antibody, the “fluorescence intensity versus Influenza A antigen concentration” value was “increased almost linearly as the concentration of the Influenza A antigen contained in the Influenza A sample solution increased”. Besides, the “fluorescence intensity versus HBsAg concentration” value in the assay with anti-HBsAG antibody [2] is “increased almost linearly as the concentration of the HBsAg antigen contained in the HBsAg sample solution increased”. The “In solution (S), Change (%)” value is “+187%” in the assay with Anti-hCG antibody(m) and “+778%” in the assay with Anti-CRP antibody(r). Also, the “fluorescence signal, selectivity” value is listed as “significantly higher fluorescence signal is generated when the Inf-A is treated” with Inf-A and “significantly higher fluorescence signal was generated when the Inf-B is treated” with Inf-B. For the same substance, in the assay on anti-SARS-COV-2 antibody, the “fluorescence intensity versus SARS-COV-2 antigen concentration” value was “increased as the concentration of the SARS-COV-2 antigen contained in the SARS-COV-2 sample solution increased”. For the same substance, the FRET intensity entry in the assay with H2 peptide is listed as “FRET intensity increased with increasing the concentration of the L1 peptide”. For the same substance, the “increase of fluorescence intensity in the solution” value (“increase of fluorescence intensity” for short) in assay [3] is given as 1,032%. In addition, the “fluorescence intensity in the solution versus antigen concentration” value in assay [4] is recorded as “increase in the fluorescence intensity in the solution was observed depending on the concentration of the antigen”.

Turning to “VYYCAREPTGTGIYFDVWGK [H2, VYYCA REPTG TGIYF DVWGK]”, in the assay with anti-HBsAG antibody [1] (FAM switching peptides of Example 2, TQ2 (FIG. 12)), the “specificity for the antigen compared with other switching peptides” value is given as “specificity for the antigen was relatively low”. For the same substance, the “fluorescence intensity, antigen selectivity” value with anti-HBsAG antibody [1] (setting [5]) was “high intensity fluorescence was measured only for the HBsAg antigen”. Besides, the “fluorescence intensity at the bottom of the plate decreased by” value with Anti-HBsAg antibody(g) worked out at 63.9%; in the assay with Anti-HRP antibody(r), 14.8%. The “In solution (S), Change (%)” value with Anti-hCG antibody(m) is recorded as “+416%”; with Anti-CRP antibody(r), “+677%”. Also, the “fluorescence signal, selectivity” value with Inf-A is “significantly higher fluorescence signal is generated when the Inf-A is treated”; in the assay with Inf-B, “significantly higher fluorescence signal was generated when the Inf-B is treated”. Moreover, the “increase of fluorescence intensity” value in assay [3] was 2,356%. Also, in [4], the “fluorescence intensity in the solution versus antigen concentration” value is “increase in the fluorescence intensity in the solution was observed depending on the concentration of the antigen”.

With “FAM-VYYCAREPTGTGIYFDVWGK ({FAM}-VYYCAREPTGTGIYFDVWGK) [H2 switching peptide of Example 2]”, in the assay on anti-HBsAG antibody [1] (TQ2 quencher, Inf A, Inf B (Florida), Inf B (Tokio), PBS sample solutions (FIG. 9)), the “fluorescence intensity, antigen selectivity” value is given as “high intensity fluorescence was measured only for the HBsAg antigen”. In addition, the “fluorescence intensity versus HBsAg concentration” value in the assay with anti-HBsAG antibody [1] (TQ2 quencher, antibody bound to protein A beads (FIG. 11)) was “increased as the concentration of HBsAg antigens of the detection sample solution increased”.

For VYYCFQGSHVPFTK [L2, VYYCF QGSHV PFTK], in the assay with anti-HBsAG antibody [1] (setting [5]), the “fluorescence intensity, antigen selectivity” value is “high intensity fluorescence was measured only for the HBsAg antigen”. Also, the “fluorescence intensity at the bottom of the plate decreased by” value turned out to be 35.2% in the assay on Anti-HBsAg antibody(g) and 25.5% in the assay on Anti-HRP antibody(r). Also, the “In solution (S), Change (%)” value in the assay on Anti-hCG antibody(m) is “+456%”; with Anti-CRP antibody(r) it was “+883%”. For the same substance, in [3], the “increase of fluorescence intensity” value was 2,452%. Besides, in assay [4], the “fluorescence intensity in the solution versus antigen concentration” value was “increase in the fluorescence intensity in the solution was observed depending on the concentration of the antigen”.

On to “SYWIHWVKQRPGQGLEWIGE [H1, SYWIH WVKQR PGQGL EWIGE]”, for which the “fluorescence intensity, antigen selectivity” value in the assay on anti-HBsAG antibody [1] (setting [5]) is reported as “high intensity fluorescence was measured only for the HBsAg antigen”. Besides, the figures for the “fluorescence intensity at the bottom of the plate decreased by” value in the assay on Anti-HBsAg antibody(g) and in the assay with Anti-HRP antibody(r) were 41.1% and 12.3%, respectively. The FRET intensity result in the assay with L2 peptide is recorded as “FRET intensity was observed to increase with increasing the concentration of the H1 peptide”. Also, the “In solution (S), Change (%)” value is “+206%” in the assay on Anti-hCG antibody(m) and “+152%” with Anti-CRP antibody(r). For the same substance, the “increase of fluorescence intensity” value in assay [3] was 2,184%. In [4], the “fluorescence intensity in the solution versus antigen concentration” value is given as “increase in the fluorescence intensity in the solution was observed depending on the concentration of the antigen”.
